Laboratory results reported in paper PMC9154192 (PLoS Biology, 2022).
Like-named read-outs stand apart in the source and are kept apart here.

Type: in vivo, SD rats
Conditions: for Adrenal gland: Vacuolation, cortical, diffuse, Grade 1, no. of animals / Adrenal gland: Vacuolation, cortical, diffuse, Grade 2, no. of animals / Epididymis: Infiltrate, inflammatory cell, interstitum, Grade 1, no. of animals / Eye: Dysplasia, retina, focal, Grade 1, no. of animals / Harderian gland: Infiltrate, inflammatory cell, focal, Grade 1, no. of animals / Kidney: Basophilia, tubule, cortex, Grade 1, no. of animals / Kidney: Cast, hyaline, cortex, Grade 1, no. of animals / Kidney: Hydronephrosis, unilateral, Grade 3, no. of animals / Kidney: Infiltrate, inflammatory cell, interstitium, Grade 1, no. of animals / Kidney: Infiltrate, inflammatory cell, interstitium, Grade 2, no. of animals / Kidney: Mineralization, cortex, Grade 1, no. of animals / Kidney: Mineralization, corticomedullary junction, Grade 1, no. of animals / Kidney: Mineralization, medulla, Grade 1, no. of animals / Liver: Extramedullary hematopoiesis, Grade 1, no. of animals / Liver: Fatty change, sporadic/periportal, Grade 1, no. of animals / Liver: Fatty change, sporadic/periportal, Grade 2, no. of animals / Liver: Infiltrate, mononuclear cell, focal, Grade 1, no. of animals / Liver: Infiltrate, mononuclear cell, focal, Grade 2, no. of animals / Lung including bronchi: Alveolar macrophage aggregation, focal, Grade 1, no. of animals / Lung including bronchi: Infiltrate, mononuclear cell, alveolar, focal, Grade 1, no. of animals / Pituitary gland: Cyst, pars nervosa, Presence, no. of animals / Prostate: Infiltrate, inflammatory cell, interstitium, Grade 1, no. of animals / Salivary gland (parotid): Focus, hypertrophic, basophilic, focal, Grade 1, no. of animals / Spleen: Pigmentation, Grade 1, no. of animals / Submandibular lymph node: Increased, plasma cell, Grade 2, no. of animals / Thyroid gland: Ectopic thymus, Presence, no. of animals / Thyroid gland: Ultimobranchial cyst, Presence, no. of animals: female
Experimental: A subchronic toxicity study was performed for PP2S. Female and male rats were divided into a control group (0 mg/kg/day, n = 15), a low-dose group (167 mg/kg/day, n = 10), a medium-dose group (500 mg/kg/day, n = 10), and a high-dose group (1,500 mg/kg/day, n = 15), respectively. Thus, there were a total of 8 groups. The drug was administered by oral gavage at 10 mL/kg body weight daily for 4 weeks. Five animals each in the control and high-dose groups continued their treatments for 2 more weeks. Clinical symptoms were observed, and body weight was measured during the test period for a total of 6 weeks; 0.5% methyl cellulose 1,500 cP (Sigma, USA) in water for injection (JW Pharmaceutical, Korea) was used as a vehicle. Control animals were treated with only the same volume of the vehicle.
Histopathological examination was performed while performing a 4-week repeated oral toxicity study for PP2S. Organs and tissues from all animals subjected to autopsy were removed and fixed in 10% neutral buffered formalin. Among them, testes, eyeballs and optic nerve were fixed in Davidson's fixative and then in 10% neutral buffered formalin. For organs/tissues subjected to histopathological examination, specimens were prepared according to the histopathological specimen preparation SOP. For histopathological examination, organs and tissues of all subjects in the control group and the high-dose group, and macroscopically observed subjects in the low-dose group were examined. […] In addition, all other changes observed in histopathological examination were judged to be spontaneous or accidental. Those not specifically observed for all groups by organ were marked with a 'dash' symbol. Grade 1, minimal; Grade 2, slight; Grade 3, moderate; Grade 4, severe.

[1] = all groups (167, 500, 1,500 mg/kg; male, female; dosing and recovery period)
[2] = G2 167 mg/kg, dosing period, n=10
[3] = G3 500 mg/kg, dosing period, n=10
[4] = G4 1,500 mg/kg, dosing period, n=10
[5] = G4 1,500 mg/kg, recovery period, n=5

What does the source list for CCCCOc1ccc2cc(CN3C(=O)CC[C@H]3C(=O)OC)c3cc(OC)c(OC)cc3c2c1 [PP2S, Methyl (S)-1-((3-butoxy-6,7-dimethoxyphenanthren-9-yl)methyl)-5-oxopyrrolidine-2-carboxylate]?
histopathological change due to administration (all administration groups, 4-week repeated oral toxicity study): no change was observed; Histopathological findings: Brain [1]: -; Histopathological findings: Cecum [1]: -; Histopathological findings: Colon [1]: -; Histopathological findings: Duodenum [1]: -; Histopathological findings: Exophagus [1]: -; Histopathological findings: Femur including bone marrow [1]: -; Histopathological findings: Heart [1]: -; Histopathological findings: Ileum [1]: -; Histopathological findings: Jejunum [1]: -; Histopathological findings: Mammary gland (inguinal) [1]: -; Histopathological findings: Mesenteric lymph node [1]: -; Histopathological findings: Optic nerve [1]: -; Histopathological findings: Pancreas [1]: -; Histopathological findings: Parathyroid gland [1]: -; Histopathological findings: Rectum [1]: -; Histopathological findings: Salivary gland (sublingual) [1]: -; Histopathological findings: Salivary gland (submandibular) [1]: -; Histopathological findings: Seminal vesicle [1]: -; Histopathological findings: Skin (inguinal) [1]: -; Histopathological findings: Spinal cord (thoracic) [1]: -; Histopathological findings: Sternum including bone marrow [1]: -; Histopathological findings: Stomach [1]: -; Histopathological findings: Testis [1]: -; Histopathological findings: Thymus [1]: -; Histopathological findings: Tongue [1]: -; Histopathological findings: Trachea [1]: -; Histopathological findings: Urinary bladder [1]: -; Histopathological findings: Uterus [1]: -; Histopathological findings: Vagina [1]: -; Adrenal gland: Vacuolation, cortical, diffuse, Grade 1, no. of animals [2]: 0; Adrenal gland: Vacuolation, cortical, diffuse, Grade 2, no. of animals [2]: 0; Epididymis: Infiltrate, inflammatory cell, interstitum, Grade 1, no. of animals [2]: 0; Eye: Dysplasia, retina, focal, Grade 1, no. of animals [2]: 0; Harderian gland: Infiltrate, inflammatory cell, focal, Grade 1, no. of animals [2]: 0; Kidney: Basophilia, tubule, cortex, Grade 1, no. of animals [2]: 0; Kidney: Cast, hyaline, cortex, Grade 1, no. of animals [2]: 0; Kidney: Hydronephrosis, unilateral, Grade 3, no. of animals [2]: 0; Kidney: Infiltrate, inflammatory cell, interstitium, Grade 1, no. of animals [2]: 0; Kidney: Infiltrate, inflammatory cell, interstitium, Grade 2, no. of animals [2]: 0; Kidney: Mineralization, cortex, Grade 1, no. of animals [2]: 0; Kidney: Mineralization, corticomedullary junction, Grade 1, no. of animals [2]: 0; Kidney: Mineralization, medulla, Grade 1, no. of animals [2]: 0; Liver: Extramedullary hematopoiesis, Grade 1, no. of animals [2]: 0; Liver: Fatty change, sporadic/periportal, Grade 1, no. of animals [2]: 0; Liver: Fatty change, sporadic/periportal, Grade 2, no. of animals [2]: 0; Liver: Infiltrate, mononuclear cell, focal, Grade 1, no. of animals [2]: 0; Liver: Infiltrate, mononuclear cell, focal, Grade 2, no. of animals [2]: 0; Lung including bronchi: Alveolar macrophage aggregation, focal, Grade 1, no. of animals [2]: 0; Lung including bronchi: Infiltrate, mononuclear cell, alveolar, focal, Grade 1, no. of animals [2]: 0; Pituitary gland: Cyst, pars nervosa, Presence, no. of animals [2]: 0; Prostate: Infiltrate, inflammatory cell, interstitium, Grade 1, no. of animals [2]: 0; Salivary gland (parotid): Focus, hypertrophic, basophilic, focal, Grade 1, no. of animals [2]: 0; Spleen: Pigmentation, Grade 1, no. of animals [2]: 0; Submandibular lymph node: Increased, plasma cell, Grade 2, no. of animals [2]: 0; Thyroid gland: Ectopic thymus, Presence, no. of animals [2]: 0; Thyroid gland: Ultimobranchial cyst, Presence, no. of animals [2]: 0; Adrenal gland: Vacuolation, cortical, diffuse, Grade 1, no. of animals [3]: 0; Adrenal gland: Vacuolation, cortical, diffuse, Grade 2, no. of animals [3]: 0; Epididymis: Infiltrate, inflammatory cell, interstitum, Grade 1, no. of animals [3]: 0; Eye: Dysplasia, retina, focal, Grade 1, no. of animals [3]: 0; Harderian gland: Infiltrate, inflammatory cell, focal, Grade 1, no. of animals [3]: 0; Kidney: Basophilia, tubule, cortex, Grade 1, no. of animals [3]: 0; Kidney: Cast, hyaline, cortex, Grade 1, no. of animals [3]: 0; Kidney: Hydronephrosis, unilateral, Grade 3, no. of animals [3]: 0; Kidney: Infiltrate, inflammatory cell, interstitium, Grade 1, no. of animals [3]: 0; Kidney: Infiltrate, inflammatory cell, interstitium, Grade 2, no. of animals [3]: 0; Kidney: Mineralization, cortex, Grade 1, no. of animals [3]: 0; Kidney: Mineralization, corticomedullary junction, Grade 1, no. of animals [3]: 0; Kidney: Mineralization, medulla, Grade 1, no. of animals [3]: 0; Liver: Extramedullary hematopoiesis, Grade 1, no. of animals [3]: 0; Liver: Fatty change, sporadic/periportal, Grade 1, no. of animals [3]: 0; Liver: Fatty change, sporadic/periportal, Grade 2, no. of animals [3]: 0; Liver: Infiltrate, mononuclear cell, focal, Grade 1, no. of animals [3]: 0; Liver: Infiltrate, mononuclear cell, focal, Grade 2, no. of animals [3]: 0; Lung including bronchi: Alveolar macrophage aggregation, focal, Grade 1, no. of animals [3]: 0; Lung including bronchi: Infiltrate, mononuclear cell, alveolar, focal, Grade 1, no. of animals [3]: 0; Pituitary gland: Cyst, pars nervosa, Presence, no. of animals [3]: 0; Prostate: Infiltrate, inflammatory cell, interstitium, Grade 1, no. of animals [3]: 0; Salivary gland (parotid): Focus, hypertrophic, basophilic, focal, Grade 1, no. of animals [3]: 0; Spleen: Pigmentation, Grade 1, no. of animals [3]: 0; Submandibular lymph node: Increased, plasma cell, Grade 2, no. of animals [3]: 0; Thyroid gland: Ectopic thymus, Presence, no. of animals [3]: 0; Thyroid gland: Ultimobranchial cyst, Presence, no. of animals [3]: 0; Adrenal gland: Vacuolation, cortical, diffuse, Grade 1, no. of animals [4]: 0; Adrenal gland: Vacuolation, cortical, diffuse, Grade 2, no. of animals [4]: 0; Epididymis: Infiltrate, inflammatory cell, interstitum, Grade 1, no. of animals [4]: 0; Eye: Dysplasia, retina, focal, Grade 1, no. of animals [4]: 1; Harderian gland: Infiltrate, inflammatory cell, focal, Grade 1, no. of animals [4]: 0; Kidney: Basophilia, tubule, cortex, Grade 1, no. of animals [4]: 1; Kidney: Cast, hyaline, cortex, Grade 1, no. of animals [4]: 0; Kidney: Hydronephrosis, unilateral, Grade 3, no. of animals [4]: 1; Kidney: Infiltrate, inflammatory cell, interstitium, Grade 1, no. of animals [4]: 4; Kidney: Infiltrate, inflammatory cell, interstitium, Grade 2, no. of animals [4]: 0; Kidney: Mineralization, cortex, Grade 1, no. of animals [4]: 0; Kidney: Mineralization, corticomedullary junction, Grade 1, no. of animals [4]: 1; Kidney: Mineralization, medulla, Grade 1, no. of animals [4]: 0; Liver: Extramedullary hematopoiesis, Grade 1, no. of animals [4]: 0; Liver: Fatty change, sporadic/periportal, Grade 1, no. of animals [4]: 5; Liver: Fatty change, sporadic/periportal, Grade 2, no. of animals [4]: 1; Liver: Infiltrate, mononuclear cell, focal, Grade 1, no. of animals [4]: 2; Liver: Infiltrate, mononuclear cell, focal, Grade 2, no. of animals [4]: 2; Lung including bronchi: Alveolar macrophage aggregation, focal, Grade 1, no. of animals [4]: 0; Lung including bronchi: Infiltrate, mononuclear cell, alveolar, focal, Grade 1, no. of animals [4]: 0; Pituitary gland: Cyst, pars nervosa, Presence, no. of animals [4]: 0; Prostate: Infiltrate, inflammatory cell, interstitium, Grade 1, no. of animals [4]: 0; Salivary gland (parotid): Focus, hypertrophic, basophilic, focal, Grade 1, no. of animals [4]: 1; Spleen: Pigmentation, Grade 1, no. of animals [4]: 4; Submandibular lymph node: Increased, plasma cell, Grade 2, no. of animals [4]: 0; Thyroid gland: Ectopic thymus, Presence, no. of animals [4]: 2; Thyroid gland: Ultimobranchial cyst, Presence, no. of animals [4]: 4; Adrenal gland: Vacuolation, cortical, diffuse, Grade 1, no. of animals [5]: 0; Adrenal gland: Vacuolation, cortical, diffuse, Grade 2, no. of animals [5]: 0; Epididymis: Infiltrate, inflammatory cell, interstitum, Grade 1, no. of animals [5]: 0; Eye: Dysplasia, retina, focal, Grade 1, no. of animals [5]: 0; Harderian gland: Infiltrate, inflammatory cell, focal, Grade 1, no. of animals [5]: 0; Kidney: Basophilia, tubule, cortex, Grade 1, no. of animals [5]: 0; Kidney: Cast, hyaline, cortex, Grade 1, no. of animals [5]: 0; Kidney: Hydronephrosis, unilateral, Grade 3, no. of animals [5]: 0; Kidney: Infiltrate, inflammatory cell, interstitium, Grade 1, no. of animals [5]: 3; Kidney: Infiltrate, inflammatory cell, interstitium, Grade 2, no. of animals [5]: 0; Kidney: Mineralization, cortex, Grade 1, no. of animals [5]: 0; Kidney: Mineralization, corticomedullary junction, Grade 1, no. of animals [5]: 0
